Measurements as given in publication PMC4249961, “Characterization of an Acidic Chitinase from Seeds of Black Soybean (Glycine max (L) Merr Tainan No. 3)” (PLoS ONE, 2014).

Assays:
[1] = tested on: T1, purified chitinase from black soybean seeds (acidic chitinase, 20.1 kDa); experiment: fluorimetric release of 4-methylumbelliferone, Lineweaver-Burk; assay type: biochemical, Glycine max; conditions: pH 5.0, 40 °C, 0.05 M sodium acetate, 30 min
T1 construct: native purification from seeds; monomer; smaller than known soybean seed class III (28 kDa) and class I (32 kDa) chitinases; trace basic isoform co-purified
From the text: fluorimetric release of 4-methylumbelliferone, Lineweaver-Burk on purified chitinase from black soybean seeds (acidic chitinase, 20.1 kDa)

[2] = tested on: T1, purified chitinase from black soybean seeds (acidic chitinase, 20.1 kDa); experiment: p-nitrophenol release at […] nm, Lineweaver-Burk; assay type: biochemical, Glycine max; conditions: pH 4.0, 37 °C, 0.05 M acetate, 30 min

| Compound | Km [1] [µM] | Km [2] [µM] |
| --- | --- | --- |
| CC(=O)N[C@H]1[C@H](Oc2ccc3c(C)cc(=O)oc3c2)O[C@H](CO)[C@@H](O[C@@H]2O[C@H](CO)[C@@H](O[C@@H]3O[C@H](CO)[C@@H](O)[C@H](O)[C@H]3NC(C)=O)[C@H](O)[C@H]2NC(C)=O)[C@@H]1O [4-MU-GlcNAc3] | 17.4 | – |
| CC(=O)N[C@H]1[C@H](Oc2ccc([N+](=O)[O-])cc2)O[C@H](CO)[C@@H](O[C@@H]2O[C@H](CO)[C@@H](O[C@@H]3O[C@H](CO)[C@@H](O[C@@H]4O[C@H](CO)[C@@H](O)[C@H](O)[C@H]4NC(C)=O)[C@H](O)[C@H]3NC(C)=O)[C@H](O)[C@H]2NC(C)=O)[C@@H]1O [pNp-GlcNAc4] | – | 245 |
